The subject of the experiment is left anterior descending coronary artery (LAD) occlusion, Sprague-Dawley rats. As to the kind of experiment: Ventricular arrhythmias (Lown classification, VPB-Score) during final permanent LAD occlusion. The class given is in vivo, rat.

Values joined by “and” are separate entries in the source; they are usually repeats but may differ in a detail not shown here. Equal values may be shown once.

As to `CC(=O)Oc1ccccc1C(=O)O` [ASA, acetyl salicylic acid], where the note is “5 DAYS RIP, during FPO”, the “rats with class IIIa arrhythmias (Lown)” value is 16.7% and the “rats with class IVb arrhythmias (Lown)” value turned out to be 83.3%.
For the molecule `O=[N+]([O-])OCC(CO[N+](=O)[O-])O[N+](=O)[O-]` [NTG, nitroglycerin], under “rat, in vivo”, the “rats with class 0 arrhythmias (Lown)” value was determined as 57.1%; the “rats with class IIIa arrhythmias (Lown)” value was 14.3%; the “rats with class IVb arrhythmias (Lown)” value was 85.7% and 42.9%.

Values taken from patent publication US9675552B2, “Use of stabilized granules containing glyceryl trinitrate for arteriogenesis” (G. Pohl-Boskamp GmbH & Co. KG, priority 2012, dated 2017).
